Assay results published in US20250326753A1, “DUAL CXCR4-BTK INHIBITORS” (X4 Pharmaceuticals, Inc., priority 2022, published 2025).
Like-named read-outs stand apart in the source and are kept apart here.

What was measured:
Format in all cases: biochemical
p38beta = molecular target: T1, p38beta (Homo sapiens, UniProt Q15759); test: PanQinase kinase panel: p38beta; conditions: read-out: INHIBITORY EFFECT @ 1 uM: p38beta
T1 construct: purchased Reaction Biology Europe GmbH
Description: (§1) Screening procedures were performed in accordance with the company's on-line protocol [accessed on-line Mar.
(§2) For each kinase, the median value of the cpm of three wells was defined as “low control” (n=3). This value reflects unspecific binding of radioactivity to the plate in the absence of a protein kinase but in the presence of the substrate. Additionally, for each kinase the median value of the cpm of three other wells was taken as the “high control,” i.e. full activity in the absence of any inhibitor (n=3). The difference between high and low control of each enzyme was taken as 100% activity.
(§3) As part of the data evaluation the low control of each kinase was subtracted from the high control value as well as from their corresponding “compound values”. The residual activity (in %) for each compound well was calculated by using the following formula: Res. Activity (%)=100×[(signal of compound−low control)/(high control−low control)].

BLK = molecular target: T2, BLK (Homo sapiens, UniProt P51451); test: PanQinase kinase panel: BLK; conditions: read-out: INHIBITORY EFFECT @ 1 uM: BLK
T2 construct: purchased Reaction Biology Europe GmbH
Description: as §1, §2
(§4) As part of the data evaluation the low control of each kinase was subtracted from the high control value as well as from their corresponding “compound values”.

FGR = molecular target: T3, FGR (Homo sapiens, UniProt P09769); test: PanQinase kinase panel: FGR; conditions: read-out: INHIBITORY EFFECT @ 1 uM: FGR
T3 construct: purchased Reaction Biology Europe GmbH
Description: as §1, §2, §4

FGFR1 = molecular target: T4, FGFR1 (Homo sapiens, UniProt P11362); test: PanQinase kinase panel: FGFR1; conditions: read-out: INHIBITORY EFFECT @ 1 uM: FGFR1
T4 construct: purchased Reaction Biology Europe GmbH
Description: as §1, §2, §3

HCK = molecular target: T5, HCK (Homo sapiens, UniProt P08631); test: PanQinase kinase panel: HCK; conditions: read-out: INHIBITORY EFFECT @ 1 uM: HCK
T5 construct: purchased Reaction Biology Europe GmbH
Description: as §1, §2, §3

FGFR2 = molecular target: T6, FGFR2 (Homo sapiens, UniProt P21802); test: PanQinase kinase panel: FGFR2; conditions: read-out: INHIBITORY EFFECT @ 1 uM: FGFR2
T6 construct: purchased Reaction Biology Europe GmbH
Description: Screening procedures were performed in accordance with the company's on-line protocol [accessed on-line Mar. 25, 2022 at reaction biology.com/assay-protocol-panqinase]. Inhibitory activity of 50% or greater at concentrations of 1 μM are highlighted for all five compounds tested.
as §2, §3

JAK3 = molecular target: T7, JAK3 (Homo sapiens, UniProt P52333); test: PanQinase kinase panel: JAK3; conditions: for inhibition at 1 µM: read-out: INHIBITORY EFFECT @ 1 uM: JAK3
T7 construct: purchased Reaction Biology Europe GmbH
T7 sequence (P52333 1-1124): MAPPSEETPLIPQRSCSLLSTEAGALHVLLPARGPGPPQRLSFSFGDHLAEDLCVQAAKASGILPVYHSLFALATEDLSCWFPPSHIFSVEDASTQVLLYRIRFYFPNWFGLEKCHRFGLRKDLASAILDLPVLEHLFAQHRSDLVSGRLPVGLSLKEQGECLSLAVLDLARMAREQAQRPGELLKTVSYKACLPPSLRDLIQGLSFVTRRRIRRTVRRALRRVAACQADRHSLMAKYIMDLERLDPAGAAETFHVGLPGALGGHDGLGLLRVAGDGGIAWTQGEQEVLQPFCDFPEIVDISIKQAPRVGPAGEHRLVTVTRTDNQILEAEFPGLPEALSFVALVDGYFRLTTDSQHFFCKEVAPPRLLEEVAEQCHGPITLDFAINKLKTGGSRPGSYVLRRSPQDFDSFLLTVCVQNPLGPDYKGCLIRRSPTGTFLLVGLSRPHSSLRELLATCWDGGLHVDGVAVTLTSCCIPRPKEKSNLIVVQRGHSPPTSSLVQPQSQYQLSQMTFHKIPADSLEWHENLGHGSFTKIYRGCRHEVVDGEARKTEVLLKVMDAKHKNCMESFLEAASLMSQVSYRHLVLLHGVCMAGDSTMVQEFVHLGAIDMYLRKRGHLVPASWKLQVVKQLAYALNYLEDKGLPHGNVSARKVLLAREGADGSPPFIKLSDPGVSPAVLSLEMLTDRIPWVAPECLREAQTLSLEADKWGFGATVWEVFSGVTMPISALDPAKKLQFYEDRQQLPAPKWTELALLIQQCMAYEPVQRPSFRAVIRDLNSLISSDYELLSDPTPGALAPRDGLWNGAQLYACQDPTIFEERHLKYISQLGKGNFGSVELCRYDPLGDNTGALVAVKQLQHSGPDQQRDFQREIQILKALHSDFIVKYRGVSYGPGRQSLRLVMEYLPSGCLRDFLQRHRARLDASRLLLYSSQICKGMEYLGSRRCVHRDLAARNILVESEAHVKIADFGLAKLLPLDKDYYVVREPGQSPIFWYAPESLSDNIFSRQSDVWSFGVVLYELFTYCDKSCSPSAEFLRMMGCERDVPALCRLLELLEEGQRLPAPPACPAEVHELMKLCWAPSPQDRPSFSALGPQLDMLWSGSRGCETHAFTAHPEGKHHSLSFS
Description: as §1, §2, §4

MKK6 SDTD = molecular target: T8, MKK6 SDTD (Homo sapiens, UniProt P52564, S207D/T211D); test: PanQinase kinase panel: MKK6 SDTD; conditions: read-out: INHIBITORY EFFECT @ 1 uM: MKK6 SDTD
T8 construct: purchased Reaction Biology Europe GmbH
T8 sequence (P52564 1-334 S207D/T211D): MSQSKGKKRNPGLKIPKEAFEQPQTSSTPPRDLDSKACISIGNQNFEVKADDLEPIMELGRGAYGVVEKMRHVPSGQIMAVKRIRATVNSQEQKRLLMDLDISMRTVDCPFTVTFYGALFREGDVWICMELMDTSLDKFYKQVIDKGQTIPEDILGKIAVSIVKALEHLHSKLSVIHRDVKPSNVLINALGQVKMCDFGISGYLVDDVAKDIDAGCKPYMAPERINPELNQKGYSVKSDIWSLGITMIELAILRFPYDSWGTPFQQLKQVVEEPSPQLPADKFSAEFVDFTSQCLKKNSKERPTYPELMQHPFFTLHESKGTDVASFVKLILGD
Description: as §1, §2, §3

[1] = tested on: 340 wild-type protein kinases; test: PanQinase wild-type kinase panel, selectivity score; conditions: 1 μM; for Selectivity Score: share of kinases with residual activity <50%, 340 wild-type protein kinase assays
Description: as §1
The selectivity score for a particular compound at a particular concentration was calculated by using the following formula: Selectivity Score=(count of data points <50%)/(total number of data points).

CLK1 = molecular target: T9, CLK1 (Homo sapiens, UniProt P49759); test: PanQinase kinase panel: CLK1
T9 construct: purchased Reaction Biology Europe GmbH
Description: as §1, §2, §3

[2] = read-out: INHIBITORY EFFECT @ 1 uM: CLK1

T1 sequence (Q15759 whole entry): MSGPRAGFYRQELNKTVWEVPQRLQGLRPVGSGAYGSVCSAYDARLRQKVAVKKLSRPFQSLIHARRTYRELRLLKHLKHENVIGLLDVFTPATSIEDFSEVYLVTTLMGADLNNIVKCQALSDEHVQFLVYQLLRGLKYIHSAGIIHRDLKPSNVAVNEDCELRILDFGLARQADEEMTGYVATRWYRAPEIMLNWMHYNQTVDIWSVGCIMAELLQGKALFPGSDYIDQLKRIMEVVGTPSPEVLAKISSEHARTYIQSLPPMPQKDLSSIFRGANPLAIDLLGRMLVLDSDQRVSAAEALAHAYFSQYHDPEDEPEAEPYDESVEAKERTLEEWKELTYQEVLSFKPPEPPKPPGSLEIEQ
T6 sequence (P21802 22-821): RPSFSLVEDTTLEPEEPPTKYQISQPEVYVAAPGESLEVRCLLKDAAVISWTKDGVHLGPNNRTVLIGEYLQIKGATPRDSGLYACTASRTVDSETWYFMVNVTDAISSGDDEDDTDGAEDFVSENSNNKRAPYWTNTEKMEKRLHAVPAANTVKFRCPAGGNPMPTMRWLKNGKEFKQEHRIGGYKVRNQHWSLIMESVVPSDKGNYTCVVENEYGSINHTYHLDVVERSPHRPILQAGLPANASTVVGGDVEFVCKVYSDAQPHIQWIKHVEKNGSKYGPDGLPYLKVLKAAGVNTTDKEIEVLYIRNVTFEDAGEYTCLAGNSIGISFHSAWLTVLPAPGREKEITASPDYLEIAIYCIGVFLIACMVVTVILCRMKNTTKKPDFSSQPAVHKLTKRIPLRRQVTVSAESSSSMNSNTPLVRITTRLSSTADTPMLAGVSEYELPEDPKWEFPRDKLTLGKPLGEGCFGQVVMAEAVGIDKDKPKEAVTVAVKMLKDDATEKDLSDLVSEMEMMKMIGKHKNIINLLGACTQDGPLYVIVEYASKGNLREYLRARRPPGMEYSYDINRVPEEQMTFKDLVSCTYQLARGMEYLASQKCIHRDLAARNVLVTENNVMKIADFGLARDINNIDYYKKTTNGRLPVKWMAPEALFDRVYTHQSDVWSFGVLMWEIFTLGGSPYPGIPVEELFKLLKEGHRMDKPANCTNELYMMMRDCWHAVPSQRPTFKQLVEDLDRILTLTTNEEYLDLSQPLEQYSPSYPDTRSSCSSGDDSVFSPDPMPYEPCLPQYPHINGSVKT
T2 sequence (P51451 whole entry): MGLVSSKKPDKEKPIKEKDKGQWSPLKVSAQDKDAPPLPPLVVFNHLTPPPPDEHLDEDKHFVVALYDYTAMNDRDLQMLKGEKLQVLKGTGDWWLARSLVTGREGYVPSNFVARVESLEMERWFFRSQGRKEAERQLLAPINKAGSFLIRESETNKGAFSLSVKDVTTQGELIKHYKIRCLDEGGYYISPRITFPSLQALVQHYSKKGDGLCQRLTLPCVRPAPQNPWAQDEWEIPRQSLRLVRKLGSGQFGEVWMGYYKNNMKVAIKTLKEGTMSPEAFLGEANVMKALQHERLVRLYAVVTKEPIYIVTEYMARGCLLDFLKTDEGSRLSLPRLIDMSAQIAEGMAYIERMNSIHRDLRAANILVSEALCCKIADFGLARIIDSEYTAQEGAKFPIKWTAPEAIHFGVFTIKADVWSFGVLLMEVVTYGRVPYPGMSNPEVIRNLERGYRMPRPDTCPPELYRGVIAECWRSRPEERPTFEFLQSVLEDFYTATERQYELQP
T5 sequence (P08631 whole entry): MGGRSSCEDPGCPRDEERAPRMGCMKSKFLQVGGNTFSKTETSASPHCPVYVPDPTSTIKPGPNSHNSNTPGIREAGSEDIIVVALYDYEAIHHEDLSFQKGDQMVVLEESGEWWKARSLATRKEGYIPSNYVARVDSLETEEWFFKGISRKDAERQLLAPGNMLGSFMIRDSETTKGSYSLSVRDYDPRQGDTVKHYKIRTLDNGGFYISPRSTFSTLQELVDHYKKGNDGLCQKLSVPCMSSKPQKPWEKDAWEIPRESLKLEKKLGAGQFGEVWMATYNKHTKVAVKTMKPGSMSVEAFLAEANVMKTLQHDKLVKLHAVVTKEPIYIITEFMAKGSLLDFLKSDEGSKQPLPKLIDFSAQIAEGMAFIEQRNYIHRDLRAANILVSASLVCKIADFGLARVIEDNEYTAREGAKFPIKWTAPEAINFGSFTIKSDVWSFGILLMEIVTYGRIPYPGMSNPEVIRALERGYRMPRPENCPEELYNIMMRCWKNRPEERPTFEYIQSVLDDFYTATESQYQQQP
T9 sequence (P49759 whole entry): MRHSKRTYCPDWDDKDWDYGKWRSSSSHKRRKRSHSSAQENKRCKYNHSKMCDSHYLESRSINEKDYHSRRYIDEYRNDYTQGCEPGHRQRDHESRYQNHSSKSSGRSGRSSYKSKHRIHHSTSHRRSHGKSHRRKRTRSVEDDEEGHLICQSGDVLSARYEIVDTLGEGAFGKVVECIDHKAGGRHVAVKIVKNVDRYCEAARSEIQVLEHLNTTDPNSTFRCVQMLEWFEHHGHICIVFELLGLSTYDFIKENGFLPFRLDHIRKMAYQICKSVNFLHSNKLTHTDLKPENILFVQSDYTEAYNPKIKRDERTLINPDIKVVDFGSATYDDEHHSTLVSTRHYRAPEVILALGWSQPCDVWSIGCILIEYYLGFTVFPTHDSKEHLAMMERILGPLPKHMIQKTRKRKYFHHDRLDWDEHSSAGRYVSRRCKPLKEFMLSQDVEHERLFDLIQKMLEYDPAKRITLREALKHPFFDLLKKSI
T3 sequence (P09769 whole entry): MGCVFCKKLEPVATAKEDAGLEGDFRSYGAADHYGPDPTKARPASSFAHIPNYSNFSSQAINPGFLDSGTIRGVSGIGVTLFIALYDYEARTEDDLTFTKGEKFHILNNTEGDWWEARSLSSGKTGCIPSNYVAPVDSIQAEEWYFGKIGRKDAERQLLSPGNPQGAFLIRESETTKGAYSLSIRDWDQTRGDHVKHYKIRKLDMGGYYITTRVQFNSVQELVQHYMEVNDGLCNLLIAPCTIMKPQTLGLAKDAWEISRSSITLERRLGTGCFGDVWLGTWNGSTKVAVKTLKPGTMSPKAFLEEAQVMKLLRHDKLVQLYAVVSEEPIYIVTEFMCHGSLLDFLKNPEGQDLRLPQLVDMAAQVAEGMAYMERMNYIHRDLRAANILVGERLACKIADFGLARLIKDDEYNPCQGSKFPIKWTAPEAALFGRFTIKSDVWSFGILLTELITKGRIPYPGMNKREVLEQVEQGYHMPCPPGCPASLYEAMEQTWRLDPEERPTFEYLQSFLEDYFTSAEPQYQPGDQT
T4 sequence (P11362 22-822): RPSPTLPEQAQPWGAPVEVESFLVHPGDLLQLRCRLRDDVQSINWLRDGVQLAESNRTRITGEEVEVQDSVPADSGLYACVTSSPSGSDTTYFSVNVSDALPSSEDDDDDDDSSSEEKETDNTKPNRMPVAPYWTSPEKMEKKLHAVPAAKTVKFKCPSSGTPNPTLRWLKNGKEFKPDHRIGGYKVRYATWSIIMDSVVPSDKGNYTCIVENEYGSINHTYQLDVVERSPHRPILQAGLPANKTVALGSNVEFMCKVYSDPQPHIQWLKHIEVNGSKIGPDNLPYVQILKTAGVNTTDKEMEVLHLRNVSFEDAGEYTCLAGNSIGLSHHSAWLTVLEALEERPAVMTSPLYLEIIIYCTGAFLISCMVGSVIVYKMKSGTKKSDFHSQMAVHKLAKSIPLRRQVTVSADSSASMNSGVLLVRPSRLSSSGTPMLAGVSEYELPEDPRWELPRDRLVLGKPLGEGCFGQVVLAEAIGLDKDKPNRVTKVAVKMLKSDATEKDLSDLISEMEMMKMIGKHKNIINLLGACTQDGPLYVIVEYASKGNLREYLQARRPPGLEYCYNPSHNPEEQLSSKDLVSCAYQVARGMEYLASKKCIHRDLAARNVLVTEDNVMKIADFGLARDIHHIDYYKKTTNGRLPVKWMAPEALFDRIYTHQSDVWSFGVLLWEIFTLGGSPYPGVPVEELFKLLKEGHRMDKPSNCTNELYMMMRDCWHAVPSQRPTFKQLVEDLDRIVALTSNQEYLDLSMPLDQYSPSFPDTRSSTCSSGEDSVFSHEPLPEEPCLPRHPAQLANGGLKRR

SMILES | inhibition at 1 µM (p38beta) | inhibition at 1 µM (BLK) | inhibition at 1 µM (FGR) | inhibition at 1 µM (FGFR1) | inhibition at 1 µM (HCK) | inhibition at 1 µM (FGFR2) | inhibition at 1 µM (JAK3) | inhibition at 1 µM (MKK6 SDTD) | Selectivity Score [1] | kinase selectivity profile ([1]; panel of approximately 336 wild-type kinases, in words) | inhibition at 1 µM (CLK1; at 1 μM, read-out: inhibition of CLK1) | inhibition at 1 µM (CLK1; [2]) | INHIBITORY EFFECT @ 1 uM: JAK3 (JAK3; 1 uM)
O=C(c1ccc(Oc2ccccc2)cc1Cl)c1c[nH]c2ncnc(N[C@@H]3CC[C@@H](CO)OC3)c12 [ARQ-531, (2-chloro-4-phenoxyphenyl) (4-(((3R,6S)-6-(hydroxymethyl)tetrahydro-2H-pyran-3-yl)amino)-7H-pyrrolo[2,3-d]pyrimidin-5-yl) methanone] | 70 to 89% | 90 to 100% | 70 to 89% | 50 to 69% | 70 to 89% | 90 to 100% | 50 to 69% | 90 to 100% |  |  |  |  | 
Cc1cccnc1[C@H]1CCC[C@@H](c2ncccc2C)N1CCN1CCN(C(=O)c2ccc(-c3cc4c(-c5cccc(NC(=O)c6ccccc6)c5C)ncnc4[nH]3)cc2)CC1 [Compound I-10, N-(3-(6-(4-(4-(2-((2R,6S)-2,6-bis(3-methylpyridin-2-yl)piperidin-1-yl)ethyl)piperazine-1-carbonyl)phenyl)-7H-pyrrolo[2,3-d]pyrimidin-4-yl)-2-methylphenyl)benzamide] | < 50% | < 50% | < 50% | < 50% | < 50% | < 50% | < 50% | < 50% | 0.053 | surprisingly high selectivity for BTK inhibition | 50 to 89% | 50 to 69% | 
Cc1cc(-c2ccnc(Nc3cnn(CCN4[C@@H](c5ncccc5C)CCC[C@H]4c4ncccc4C)c3)n2)ccc1CNC(=O)N1CC(OC(C)C)C1 [Compound I-11] |  |  |  |  |  |  |  |  | 0.032 |  |  |  | 
Cc1cccnc1[C@H]1CCC[C@@H](c2ncccc2C)N1CCCCNC(=O)[C@@H]1CC[C@@H](Nc2ncnc3[nH]cc(C(=O)c4ccc(Oc5ccccc5)cc4Cl)c23)CO1 [Compound I-16] |  |  |  |  |  |  |  |  | 0.265 |  |  |  | 
Cc1cccnc1[C@H]1CCC[C@@H](c2ncccc2C)N1CCCCNC(=O)OC[C@@H]1CC[C@@H](Nc2ncnc3[nH]cc(C(=O)c4ccc(Oc5ccccc5)cc4Cl)c23)CO1 [Compound I-18] |  |  |  |  |  |  |  |  | 0.221 |  |  |  | 
COc1ccc(F)cc1C(=O)NCc1ccc(-c2nn([C@@H](C)C(F)(F)F)c(N)c2C(N)=O)cc1 [LOXO-305, pirtobrutinib] | < 50% | < 50% | < 50% | < 50% | < 50% | < 50% | < 50% | < 50% |  |  |  | < 50% | 
C=CC(=O)N1CCC([C@@H]2CCNc3c(C(N)=O)c(-c4ccc(Oc5ccccc5)cc4)nn32)CC1 [Zanubrutinib, (7S)-2-(4-phenoxyphenyl)-7-(1-prop-2-enoylpiperidin-4-yl)-4,5,6,7-tetrahydropyrazolo[1,5-a]pyrimidine-3-carboxamide] | < 50% |  | < 50% | < 50% |  | < 50% |  | < 50% |  |  |  | < 50% | + (Below 50% Inhibition at 1 uM)
